Seven substances from patent publication US9028845B2, “Chimeric immunomodulatory compounds and methods of using the same-IV” (Dynavax Technologies Corporation, priority 2001, dated 2015) can be followed below.

In one data set the test system is CD19+ B cells. The data set can be described thus: Human B cell proliferation assay (3H-thymidine incorporation). The conditions noted are these: purified human B cells, 5 μg/ml, 96 h. A general note: Uptake of a labelled nucleoside into DNA is a usual measure of proliferation.
The subject of a further data set is human PBMCs. As to the kind of experiment: Human PBMC cytokine response assay (IFN-γ and IFN-α in cell-free medium by ELISA), with or without cPLGA.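 For IFN-α (pg/ml) mean: 20 µg/mL compound for 24 hours.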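 For IFN-γ (pg/ml) mean: 20 µg/mL compound for 24 hours.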 Type of data set: cell-based. The conditions noted are these: for IFN-α induction (FIG. 10), in words: PBMCs from 8 donors, 20 μg/ml, 24 h; for IFN-α from human PBMC compared with parent oligonucleotide P-17, in words: low doses (e.g., 0.8 ug/ml), four individuals. Background: ELISA stands for enzyme-linked immunosorbent assay.

Where [1] appears, read: Example 58, 0.8 ug/ml, mean of four individuals.
[2] abbreviates: Example 58, 4 ug/ml, mean of four individuals.
The mark [3] stands for this setting: Example 58, 20 ug/ml, mean of four individuals.
Setting [4] is: mean of donors 110, 112, 119, 120, Table 14.

With “(5′-TCGTCGT-3′-HEG)2-glycerol-HEG-5′-TCGTCGT-3′ [Compound C-142]”, in the data set with CD19+ B cells, the “B cell proliferation (FIG. 11), in words” value was “induce B cells to proliferate”. In addition, in the data set on human PBMCs, the “IFN-α induction (FIG. 10), in words” value was “induce high levels of IFN-α”.

Take “(5′-TCGACGT-3′-HEG)3-trebler-HEG-5′-TCGACGT-3′ [Compound C-125]”: the “B cell proliferation (FIG. 11), in words” value with CD19+ B cells was “induce very little B cell proliferation”. Moreover, the “IFN-α induction (FIG. 10), in words” value in the data set with human PBMCs was “induce high levels of IFN-α”.

Take “5′-TCGATTT-3′-HEG-5′-TCGATTT-3′-HEG-5′-TCGATTT-3′ [Compound C-74]”: the “B cell proliferation (FIG. 11), in words” value with CD19+ B cells is “induced moderate levels of B cell proliferation”.

For “5′-TCGTCG-3′-HEG-5′-ACGTTCG-3′-HEG-5′-AGATGAT-3′-TEG [Compound C-29]”, the IFN-α turned out to be 75 pg/mL in the data set on human PBMCs (Table 9, donor 28089); 92 pg/mL in the data set on human PBMCs (Table 9, donor 28090); 359 pg/mL with human PBMCs (Table 9, donor 28098); 332 pg/mL with human PBMCs (Table 9, donor 28099). Further, the IFN-γ in the data set with human PBMCs (Table 9, donor 28089) was 63 pg/mL; with human PBMCs (Table 9, donor 28090), 50 pg/mL; with human PBMCs (Table 9, donor 28098) it was 150 pg/mL; with human PBMCs (Table 9, donor 28099), 177 pg/mL. The IFN-α mean in the data set with human PBMCs (Table 9, mean of donors) amounted to 214 pg/mL. This substance also returned an IFN-γ mean in the data set with human PBMCs (Table 9, mean of donors) of 110 pg/mL.

On to “(5′-TCGAACGTTCGA-3′ (SEQ ID NO: 155)-HEG)3-trebler-HEG-5′-T-3′ (three copies HEG-trebler branched, HEG-T, chemistry not fully specified) [Compound C-175]”, for which the IFN-α in the data set with human PBMCs (Example 58, 0.8 ug/ml, donor 1) was found to be 21783 pg/mL; in the data set on human PBMCs (Example 58, 0.8 ug/ml, donor 2), 16605 pg/mL; in the data set on human PBMCs (Example 58, 0.8 ug/ml, donor 3) it was 851 pg/mL; in the data set on human PBMCs (Example 58, 0.8 ug/ml, donor 4) it was 2874 pg/mL; in the data set with human PBMCs (Example 58, 4 ug/ml, donor 1) it was 7134 pg/mL; with human PBMCs (Example 58, 4 ug/ml, donor 2), 6779 pg/mL. Further, the IFN-α in the data set with human PBMCs (Example 58, 4 ug/ml, donor 3) was determined as 906 pg/mL; in the data set on human PBMCs (Example 58, 4 ug/ml, donor 4), 1951 pg/mL; in the data set with human PBMCs (Example 58, 20 ug/ml, donor 1), 2250 pg/mL; in the data set with human PBMCs (Example 58, 20 ug/ml, donor 2), 732 pg/mL; with human PBMCs (Example 58, 20 ug/ml, donor 3), 52 pg/mL; with human PBMCs (Example 58, 20 ug/ml, donor 4), 52 pg/mL. In addition, the IFN-α mean was 10528 pg/mL in the data set with human PBMCs (setting [1]), 4193 pg/mL in the data set with human PBMCs (setting [2]) and 771 pg/mL with human PBMCs (setting [3]). In addition, the “IFN-α from human PBMC compared with parent oligonucleotide P-17, in words” value with human PBMCs is “induce significantly more IFN-α”.

Regarding “5′-TCGTCGA-3′-HEG-5′-TCGTCGA-3′ [Compound C-39]”, the IFN-α in the data set on human PBMCs (Table 10, donor 28042) is 31 pg/mL; in the data set on human PBMCs (Table 10, donor 28043) it was 187 pg/mL; with human PBMCs (Table 10, donor 28044), 46 pg/mL; with human PBMCs (Table 10, donor 28045), 36 pg/mL; in the data set with human PBMCs (donor 110, Table 14) it was 674 pg/mL; in the data set on human PBMCs (donor 112, Table 14), 26 pg/mL. The “IFN-α” value was 444 pg/mL in the data set with human PBMCs (donor 119, Table 14) and 250 pg/mL in the data set with human PBMCs (donor 120, Table 14). For the same substance, the IFN-γ in the data set with human PBMCs (Table 10, donor 28042) amounted to 343 pg/mL; in the data set with human PBMCs (Table 10, donor 28043), 488 pg/mL; with human PBMCs (Table 10, donor 28044), 281 pg/mL; in the data set on human PBMCs (Table 10, donor 28045) it was 137 pg/mL; in the data set with human PBMCs (donor 110, Table 14), 604 pg/mL; in the data set on human PBMCs (donor 112, Table 14), 116 pg/mL. Moreover, the “IFN-γ” value is 108 pg/mL in the data set on human PBMCs (donor 119, Table 14) and 32 pg/mL with human PBMCs (donor 120, Table 14). Besides, the IFN-α mean in the data set on human PBMCs (Table 10, mean of donors) is 75 pg/mL. The same substance came in with an IFN-γ mean with human PBMCs (Table 10, mean of donors) of 312 pg/mL. Also, the “activity when formulated with cPLGA, in words” value in the data set on human PBMCs (formulated with cPLGA) is reported as “significant activity when formulated with cPLGA”. Besides, the “IFN-α (pg/ml) mean” value with human PBMCs (setting [4]) turned out to be 349 pg/mL. For the same substance, the “IFN-γ (pg/ml) mean” value in the data set with human PBMCs (setting [4]) was 215 pg/mL. Further, the “immunomodulatory activity (IFN-γ / IFN-α secretion), in words” value in the data set with human PBMCs (used alone (no cPLGA)) is reported as “active when used alone”.

“(5′-TCGAACGTTCGA-3′ (SEQ ID NO: 155)-HEG)2-glycerol-HEG-3′-AGCTTGCAAGCT-5′ (SEQ ID NO: 155) (DNA, all phosphorothioate, methylation of C not given here; Three DNA copies joined by HEG spacers and glycerol branching, one copy inverted) [Compound C-174]”: the IFN-α came to 7907 pg/mL in the data set on human PBMCs (Example 58, 0.8 ug/ml, donor 1); 11198 pg/mL in the data set with human PBMCs (Example 58, 0.8 ug/ml, donor 2); 998 pg/mL in the data set on human PBMCs (Example 58, 0.8 ug/ml, donor 3); 1752 pg/mL in the data set with human PBMCs (Example 58, 0.8 ug/ml, donor 4); 5601 pg/mL in the data set on human PBMCs (Example 58, 4 ug/ml, donor 1); 7845 pg/mL in the data set with human PBMCs (Example 58, 4 ug/ml, donor 2). Further, the IFN-α in the data set on human PBMCs (Example 58, 4 ug/ml, donor 3) is 1016 pg/mL; in the data set on human PBMCs (Example 58, 4 ug/ml, donor 4) it was 5895 pg/mL; with human PBMCs (Example 58, 20 ug/ml, donor 1), 1350 pg/mL; with human PBMCs (Example 58, 20 ug/ml, donor 2), 1176 pg/mL; in the data set with human PBMCs (Example 58, 20 ug/ml, donor 3), 61 pg/mL; in the data set with human PBMCs (Example 58, 20 ug/ml, donor 4), 837 pg/mL. The IFN-α mean is 5464 pg/mL with human PBMCs (setting [1]), 5089 pg/mL with human PBMCs (setting [2]) and 856 pg/mL in the data set with human PBMCs (setting [3]). The “IFN-α from human PBMC compared with parent oligonucleotide P-17, in words” value with human PBMCs is “induce significantly more IFN-α”.
